From US20090069398A1, “Pyrazolyl Carboxamides” (Bayer CropScience AG, priority 2005, published 2009) come the findings set out here.

What is called chromatographic logP is lipophilicity estimated from chromatographic retention.

Data set [1] is described as follows: log P determination by HPLC on reversed-phase column (EEC Directive 79/831 Annex V.A8). In kind it is physicochemical. As to conditions: reversed-phase HPLC column (C 18); pH 2.3; HPLC reversed-phase C 18, 43° C.; 0.1% aqueous phosphoric acid/acetonitrile. The procedure:
The log P values given in the Tables and Preparation Examples above are determined in accordance with EEC Directive 79/831 Annex V.A8 by HPLC (High Performance Liquid Chromatography) on reversed-phase column (C 18). Temperature: 43° C. The determination is carried out in the acidic range at pH 2.3 using the mobile phases 0.1% aqueous phosphoric acid and acetonitrile; linear gradient from 10% acetonitrile to 90% acetonitrile. Calibration is carried out using unbranched alkan-2-ones (having 3 to 16 carbon atoms) with known log P values (determination of the log P values by the retention times using linear interpolation between two successive alkanones).

Data set [2] has as its system Puccinia recondita. The data set is described as follows: Puccinia test (wheat)/protective. The settings on record: protective, application rate 1000 ppm, evaluation 10 days after inoculation. It counts as in vivo. The protocol: (§1) [table] To produce a suitable preparation of active compound, 1 part by weight of active compound is mixed with the stated amounts of solvent and emulsifier, and the concentrate is diluted with water to the desired concentration. To test for protective activity, young plants are sprayed with the active compound preparation at the stated application rate. After the spray coating has dried on, the plants are sprayed with a conidia suspension of Puccinia recondita. The plants remain in an incubation cabin at 20° C. and 100% relative atmospheric humidity for 48 hours. The plants are then placed in a greenhouse at a temperature of about 20° C. and a relative atmospheric humidity of 80% to promote the development of rust pustules. Evaluation is carried out 10 days after the inoculation. 0% means an efficacy which corresponds to that of the control, whereas an efficacy of 100% means that no infection is observed.

Data set [3] relates to Pyrenophora teres. The data set is described as follows: Pyrenophora teres test (barley)/protective. In kind it is in vivo. The settings on record: protective, application rate 1000 ppm, evaluation 8 days after inoculation. The protocol:
as §1, with “of Pyrenophora teres.” for “of Puccinia recondita.”, “of 80%.” for “of 80% to promote the development of rust pustules.”, “out 8” for “out 10”

For data set [4], the system named is Botrytis cinerea. The data set is described as follows: Botrytis test (cucumber)/protective. It counts as in vivo. The settings on record: protective, application rate 500 ppm, evaluation 5-6 days after inoculation. The procedure:
(§2) [table] To produce a suitable preparation of active compound, 1 part by weight of active compound is mixed with the stated amounts of solvent and emulsifier, and the concentrate is diluted with water to the desired concentration. To test for protective activity, young cucumber plants are sprayed with the active compound preparation at the stated application rate. 1 day after the treatment, the plants are inoculated with a spore suspension of Botrytis cinerea and then remain at 100% relative humidity and 20° C. for 48 h. The plants then remain at 96% relative atmospheric humidity and a temperature of 13° C. Evaluation is carried out 5-6 days after the inoculation. 0% means an efficacy which corresponds to that of the control, whereas an efficacy of 100% means that no infection is observed.

Data set [5] relates to Alternaria solani. The data set is described as follows: Alternaria test (tomato)/protective. It counts as in vivo. The settings on record: protective, application rate 500 ppm, evaluation 7 days after inoculation. The protocol:
as §2, with “To test for protective activity, young cucumber plants are sprayed with the active compound preparation at the stated application rate.” left out, “Alternaria solani” for “Botrytis cinerea”, “24” for “48”, “20°” for “13°”, “7” for “5-6”

Compound `CCn1cc(C(=O)Nc2ccc(F)cc2-c2ccc(Cl)c(Cl)c2)c(C(F)F)n1` [Example 1, N-(3′,4′-dichloro-5-fluorobiphenyl-2-yl)-3-(difluoromethyl)-1-ethyl-1H-pyrazole-4-carboxamide] yielded a chromatographic logP in data set [1] of 3.61. Same read-out and setting: the result for `CCn1cc(C(=O)Nc2ccc(F)cc2-c2ccc(Cl)c(F)c2)c(C(F)F)n1` [Example 2, N-(4′-chloro-3′,5-difluorobiphenyl-2-yl)-3-(difluoromethyl)-1-ethyl-1H-pyrazole-4-carboxamide] reads 3.34.

Consider `Cn1nc(C(C)(C)C)c(C(=O)Nc2ccc(F)cc2-c2ccc(Cl)c(Cl)c2)c1Cl` [Example 5], for which the chromatographic logP in data set [1] was determined as 4.53.

`CCn1cc(C(=O)Nc2ccc(F)cc2-c2ccc(Cl)c(Cl)c2)c(C(F)F)n1` [drawing 16]: the Efficacy in % in data set [2] is recorded as 95%. In turn, `CCn1cc(C(=O)Nc2ccc(F)cc2-c2ccc(Cl)c(Cl)c2)c(C(F)F)n1` [drawing 17] came in with an Efficacy in % in data set [3] of 100%.

Regarding `Cn1nc(C(C)(C)C)c(C(=O)Nc2ccc(F)cc2-c2ccc(Cl)c(Cl)c2)c1Cl` [drawing 18], the Efficacy in % in data set [4] is 70%. `CCn1cc(C(=O)Nc2ccc(F)cc2-c2ccc(Cl)c(Cl)c2)c(C(F)F)n1` [drawing 19]: the Efficacy in % in data set [5] is 95%. On the same count and under the same terms, the result for `CCn1cc(C(=O)Nc2ccc(F)cc2-c2ccc(Cl)c(F)c2)c(C(F)F)n1` [drawing 20] reads 95%.
